US20230143604A1, “QW DOSING OF GIP RECEPTOR AGONIST PEPTIDE COMPOUNDS AND USES THEREOF” (TAKEDA PHARMACEUTICAL COMPANY LIMITED, priority 2020, published 2023)

Assays:
C57BL/6J mice = experiment: Oral glucose tolerance test (OGTT); format: in vivo; details: 3 nmol/kg s.c., 24 hours before glucose loading
Method: An oral glucose tolerance test (OGTT) was carried out using C57BL/6J mice with a 50% dextrose solution dosed at 5 ml/kg. Testing concentrations of 0.1 nmol/kg, 0.3 nmmol/kg, 3 nmol/kg or 10 nmol/kg were selected depending on the peptide. Each peptide or a vehicle (control group) was subcutaneously administered 24 hours (unless shown otherwise) before glucose loading and the blood glucose was measured at 0, 15, 30, and 60 minutes after glucose dosing.
% inhibition=(1−(AUC cpd−AUC naïve/AUC veh−AUC naïve))×100.

physchem = experiment: physchem
Summary of the method: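 Solubility at pH 7.4 determined by stepwise addition of 200 mM phosphate buffer in 100 μL increments to 3 mg peptide, mixing briefly each time, until no insoluble material remained, then measured by liquid chromatography.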

[1] = pH 7.4, aqueous buffer, pH 7.4 Phosphate Buffer - Solubility, 200 mM Phosphate buffer pH 7.4
[2] = pH 7.4, solubility in phosphate buffer at pH 7.4, 200 mM phosphate buffer pH 7.4

SMILES	Oral Glucose Tolerance Test Percent decrease in blood glucose AUC (%) over 60 mins (C57BL/6J mice)	solubility (physchem; pH 7.4)	solubility (physchem; pH 7.4, aqueous buffer)	solubility (physchem; [1])	solubility (physchem; [2])
CC[C@H](C)[C@H](NC(=O)[C@H](CO)NC(=O)[C@H](Cc1ccc(O)cc1)NC(=O)[C@H](CC(=O)O)NC(=O)[C@H](CO)NC(=O)[C@@H](NC(=O)[C@H](Cc1ccccc1)NC(=O)[C@@H](NC(=O)CNC(=O)[C@H](CCC(=O)O)NC(=O)C(C)(C)NC(=O)[C@H](Cc1ccc(O)cc1)NC)[C@@H](C)O)[C@@H](C)CC)C(=O)N[C@@H](C)C(=O)N[C@@H](CCCCNC(=O)CNC(=O)CNC(=O)CNC(=O)CNC(=O)CNC(=O)CCCCCCCCCCCCCCCCC(=O)O)C(=O)N[C@@H](CC(=O)O)C(=O)N[C@@H](CCCNC(=N)N)C(=O)NC(C)(C)C(=O)N[C@@H](C)C(=O)N[C@@H](CCC(N)=O)C(=O)NC(C)(C)C(=O)N[C@@H](CC(=O)O)C(=O)N[C@@H](Cc1ccccc1)C(=O)N[C@H](C(=O)N[C@@H](CC(N)=O)C(=O)N[C@@H](Cc1c[nH]c2ccccc12)C(=O)N[C@@H](CC(C)C)C(=O)N[C@@H](CC(C)C)C(=O)N[C@@H](C)C(=O)N[C@@H](CCC(N)=O)C(=O)N[C@@H](CCCNC(=N)N)C(=O)NCC(=O)O)C(C)C [Compound 63]	41% (3 nmol/kg)	≥ 15 mg/mL	–	–	–
CC[C@H](C)[C@H](NC(=O)[C@H](CO)NC(=O)[C@H](Cc1ccc(O)cc1)NC(=O)[C@H](CC(=O)O)NC(=O)[C@H](CO)NC(=O)[C@@H](NC(=O)[C@H](Cc1ccccc1)NC(=O)[C@@H](NC(=O)CNC(=O)[C@H](CCC(=O)O)NC(=O)C(C)(C)NC(=O)[C@H](Cc1ccc(O)cc1)NC)[C@@H](C)O)[C@@H](C)CC)C(=O)N[C@@H](C)C(=O)N[C@@H](CCCCNC(=O)CNC(=O)CNC(=O)CNC(=O)CNC(=O)CNC(=O)CCCCCCCCCCCCCCCCC(=O)O)C(=O)N[C@@H](CC(=O)O)C(=O)N[C@@H](CCCNC(=N)N)C(=O)NC(C)(C)C(=O)N[C@@H](C)C(=O)N[C@@H](CCC(N)=O)C(=O)NC(C)(C)C(=O)N[C@@H](CC(=O)O)C(=O)N[C@@H](Cc1ccccc1)C(=O)N[C@H](C(=O)N[C@@H](CC(N)=O)C(=O)N[C@@H](Cc1c[nH]c2ccccc12)C(=O)N[C@@H](CC(C)C)C(=O)N[C@@H](CC(C)C)C(=O)N[C@@H](C)C(=O)N[C@@H](CCC(N)=O)C(=O)N[C@@H](CCCNC(=N)N)C(=O)N1CCC[C@H]1C(=O)N[C@@H](CO)C(=O)N[C@@H](CO)C(=O)NCC(=O)O)C(C)C [Compound 70]	56% (3 nmol/kg)	≥ 15 mg/mL	≥ 30 mg/mL	–	–
CC[C@H](C)[C@H](NC(=O)[C@H](Cc1ccccc1)NC(=O)[C@@H](NC(=O)CNC(=O)[C@H](CCC(=O)O)NC(=O)C(C)(C)NC(=O)[C@H](Cc1ccc(O)cc1)NC)[C@@H](C)O)C(=O)N[C@@H](CO)C(=O)N[C@@H](CC(=O)O)C(=O)N[C@@H](Cc1ccc(O)cc1)C(=O)N[C@@H](CO)C(=O)N[C@H](C(=O)NC(C)(C)C(=O)N[C@@H](CCCCNC(=O)CNC(=O)CNC(=O)CNC(=O)CNC(=O)CNC(=O)CCCCCCCCCCCCCCCCC(=O)O)C(=O)N[C@@H](CC(=O)O)C(=O)N[C@@H](CCCNC(=N)N)C(=O)NC(C)(C)C(=O)N[C@@H](C)C(=O)N[C@@H](CCC(N)=O)C(=O)NC(C)(C)C(=O)N[C@@H](CC(N)=O)C(=O)N[C@@H](Cc1ccccc1)C(=O)N[C@H](C(=O)N[C@@H](CC(N)=O)C(=O)N[C@@H](Cc1c[nH]c2ccccc12)C(=O)N[C@@H](CC(C)C)C(=O)N[C@@H](CC(C)C)C(=O)N[C@@H](C)C(=O)N[C@@H](CCC(N)=O)C(=O)N[C@@H](CO)C(=O)N1CCC[C@H]1C(=O)N[C@@H](CO)C(=O)N[C@@H](CO)C(=O)NCC(=O)N[C@@H](C)C(=O)N1CCC[C@H]1C(=O)N1CCC[C@H]1C(=O)N1CCC[C@H]1C(=O)N[C@@H](CO)C(=O)O)C(C)C)[C@@H](C)CC [Compound 96]	80% (3 nmol/kg)	–	–	≥ 60 mg/mL	≥ 15 mg/mL
CC[C@H](C)[C@H](NC(=O)[C@H](CO)NC(=O)[C@H](Cc1ccc(O)cc1)NC(=O)[C@H](CC(=O)O)NC(=O)[C@H](CO)NC(=O)[C@@H](NC(=O)[C@H](Cc1ccccc1)NC(=O)[C@@H](NC(=O)CNC(=O)[C@H](CCC(=O)O)NC(=O)C(C)(C)NC(=O)[C@H](Cc1ccc(O)cc1)NC)[C@@H](C)O)[C@@H](C)CC)C(=O)N[C@@H](C)C(=O)N[C@@H](CCCCNC(=O)CNC(=O)CNC(=O)CNC(=O)CNC(=O)CNC(=O)CCCCCCCCCCCCCCCCCCC(=O)O)C(=O)N[C@@H](CC(=O)O)C(=O)N[C@@H](CCCNC(=N)N)C(=O)NC(C)(C)C(=O)N[C@@H](C)C(=O)N[C@@H](CCC(N)=O)C(=O)NC(C)(C)C(=O)N[C@@H](CC(=O)O)C(=O)N[C@@H](Cc1ccccc1)C(=O)N[C@H](C(=O)N[C@@H](CC(N)=O)C(=O)N[C@@H](Cc1c[nH]c2ccccc12)C(=O)N[C@@H](CC(C)C)C(=O)N[C@@H](CC(C)C)C(=O)N[C@@H](C)C(=O)N[C@@H](CCC(N)=O)C(=O)N[C@@H](CO)C(=O)N1CCC[C@H]1C(=O)NCC(=O)O)C(C)C [Compound 111]	44% (3 nmol/kg)	≥ 15 mg/mL	≥ 30 mg/mL	–	–
CC[C@H](C)[C@H](NC(=O)[C@H](CO)NC(=O)[C@H](Cc1ccc(O)cc1)NC(=O)[C@H](CC(=O)O)NC(=O)[C@H](CO)NC(=O)[C@@H](NC(=O)[C@H](Cc1ccccc1)NC(=O)[C@@H](NC(=O)CNC(=O)[C@H](CCC(=O)O)NC(=O)C(C)(C)NC(=O)[C@@H](N)Cc1ccc(O)cc1)[C@@H](C)O)[C@@H](C)CC)C(=O)N[C@@H](C)C(=O)N[C@@H](CCCCNC(=O)CNC(=O)CNC(=O)CNC(=O)CNC(=O)CNC(=O)CCCCCCCCCCCCCCCCC(=O)O)C(=O)N[C@@H](CC(=O)O)C(=O)N[C@@H](CCCNC(=N)N)C(=O)NC(C)(C)C(=O)N[C@@H](C)C(=O)N[C@@H](CCC(N)=O)C(=O)NC(C)(C)C(=O)N[C@@H](CC(N)=O)C(=O)N[C@@H](Cc1ccccc1)C(=O)N[C@H](C(=O)N[C@@H](CC(N)=O)C(=O)N[C@@H](Cc1c[nH]c2ccccc12)C(=O)N[C@@H](CC(C)C)C(=O)N[C@@H](CC(C)C)C(=O)N[C@@H](C)C(=O)N[C@@H](CCC(N)=O)C(=O)N[C@@H](CO)C(=O)N1CCC[C@H]1C(=O)N[C@@H](CO)C(=O)N[C@@H](CO)C(=O)NCC(=O)N[C@@H](C)C(=O)N1CCC[C@H]1C(=O)N1CCC[C@H]1C(=O)N1CCC[C@H]1C(=O)N[C@@H](CO)C(=O)O)C(C)C [Compound 138]	80% (3 nmol/kg)	–	–	≥ 30 mg/mL	≥ 15 mg/mL
CC[C@H](C)[C@H](NC(=O)[C@H](CO)NC(=O)[C@H](Cc1ccc(O)cc1)NC(=O)[C@H](CC(=O)O)NC(=O)[C@H](CO)NC(=O)[C@@H](NC(=O)[C@H](Cc1ccccc1)NC(=O)[C@@H](NC(=O)CNC(=O)[C@H](CCC(=O)O)NC(=O)C(C)(C)NC(=O)[C@@H](N)Cc1ccc(O)cc1)[C@@H](C)O)[C@@H](C)CC)C(=O)N[C@@H](C)C(=O)N[C@@H](CCCCNC(=O)CNC(=O)CNC(=O)CNC(=O)CNC(=O)CNC(=O)CCCCCCCCCCCCCCCCC(=O)O)C(=O)N[C@@H](CC(=O)O)C(=O)N[C@@H](CCCNC(=N)N)C(=O)NC(C)(C)C(=O)N[C@@H](C)C(=O)N[C@@H](CCC(N)=O)C(=O)NC(C)(C)C(=O)N[C@@H](CC(=O)O)C(=O)N[C@@H](Cc1ccccc1)C(=O)N[C@H](C(=O)N[C@@H](CCC(=O)O)C(=O)N[C@@H](Cc1c[nH]c2ccccc12)C(=O)N[C@@H](CC(C)C)C(=O)N[C@@H](CC(C)C)C(=O)N[C@@H](C)C(=O)N[C@@H](CCC(N)=O)C(=O)N[C@@H](CCCNC(=N)N)C(=O)NCC(=O)O)C(C)C [Compound 144]	35% (3 nmol/kg)	≥ 15 mg/mL	≥ 30 mg/mL	–	–
CC[C@H](C)[C@H](NC(=O)[C@H](Cc1ccccc1)NC(=O)[C@@H](NC(=O)CNC(=O)[C@H](CCC(=O)O)NC(=O)C(C)(C)NC(=O)[C@@H](N)Cc1ccc(O)cc1)[C@@H](C)O)C(=O)N[C@@H](CO)C(=O)N[C@@H](CC(=O)O)C(=O)N[C@@H](Cc1ccc(O)cc1)C(=O)N[C@@H](CO)C(=O)N[C@H](C(=O)NC(C)(C)C(=O)N[C@@H](CCCCNC(=O)CNC(=O)CNC(=O)CNC(=O)CNC(=O)CNC(=O)CCCCCCCCCCCCCCCCC(=O)O)C(=O)N[C@@H](CC(=O)O)C(=O)N[C@@H](CCCNC(=N)N)C(=O)NC(C)(C)C(=O)N[C@@H](C)C(=O)N[C@@H](CCC(N)=O)C(=O)N[C@@H](C)C(=O)N[C@@H](CC(=O)O)C(=O)N[C@@H](Cc1ccccc1)C(=O)N[C@H](C(=O)N[C@@H](CCC(=O)O)C(=O)N[C@@H](Cc1c[nH]c2ccccc12)C(=O)N[C@@H](CC(C)C)C(=O)N[C@@H](CC(C)C)C(=O)N[C@@H](C)C(=O)N[C@@H](CCC(N)=O)C(=O)N[C@@H](CCCNC(=N)N)C(=O)NCC(=O)O)C(C)C)[C@@H](C)CC [Compound 146]	52% (3 nmol/kg)	≥ 15 mg/mL	≥ 30 mg/mL	–	–
CC[C@H](C)[C@H](NC(=O)[C@H](Cc1ccccc1)NC(=O)[C@@H](NC(=O)CNC(=O)[C@H](CCC(=O)O)NC(=O)C(C)(C)NC(=O)[C@@H](N)Cc1ccc(O)cc1)[C@@H](C)O)C(=O)N[C@@H](CO)C(=O)N[C@@H](CC(=O)O)C(=O)N[C@@H](Cc1ccc(O)cc1)C(=O)N[C@@H](CO)C(=O)N[C@H](C(=O)NC(C)(C)C(=O)N[C@@H](CCCCNC(=O)CNC(=O)CNC(=O)CNC(=O)CNC(=O)CNC(=O)CCCCCCCCCCCCCCCCC(=O)O)C(=O)N[C@@H](CC(=O)O)C(=O)N[C@@H](CCCNC(=N)N)C(=O)N[C@@H](C)C(=O)N[C@@H](C)C(=O)N[C@@H](CCC(N)=O)C(=O)N[C@@H](C)C(=O)N[C@@H](CC(=O)O)C(=O)N[C@@H](Cc1ccccc1)C(=O)N[C@H](C(=O)N[C@@H](CCC(=O)O)C(=O)N[C@@H](Cc1c[nH]c2ccccc12)C(=O)N[C@@H](CC(C)C)C(=O)N[C@@H](CC(C)C)C(=O)N[C@@H](C)C(=O)N[C@@H](CCC(N)=O)C(=O)N[C@@H](CCCNC(=N)N)C(=O)NCC(=O)O)C(C)C)[C@@H](C)CC [Compound 148]	51% (3 nmol/kg)	≥ 15 mg/mL	≥ 30 mg/mL	–	–
